These results are taken from patent publication US9676712B2, “Lactam compounds as EP4 receptor-selective agonists for use in the treatment of EP4-mediated diseases and conditions” (Cayman Chemical Company, Inc., priority 2013, dated 2017).

Assay [1] has as its target T1, EP4 receptor (Rattus norvegicus (Rat), UniProt P43114). In words: STEP plate cell functional assay, SEAP activity, EP4. The assay is classed as cell-based. Conditions: SEAP reporter, 6-8 hours stimulation. From the text: (§1) Functional Cellular Assays (STEP Plate Format)
(§2) Procedure of SEAP Activity Assay for EP2/EP4 Agonist
(§3) 3. […] In addition each concentration had triplicates.
(§4) 4. […] Cover the plate with the lid.

The target of assay [2] is EP2 receptor (Rattus norvegicus (Rat), UniProt Q62928). In words: STEP plate cell functional assay, SEAP activity, EP2. Conditions: SEAP reporter, 6-8 hours stimulation. Type of assay: cell-based.
Chain of EP2 receptor (Q62928 whole entry): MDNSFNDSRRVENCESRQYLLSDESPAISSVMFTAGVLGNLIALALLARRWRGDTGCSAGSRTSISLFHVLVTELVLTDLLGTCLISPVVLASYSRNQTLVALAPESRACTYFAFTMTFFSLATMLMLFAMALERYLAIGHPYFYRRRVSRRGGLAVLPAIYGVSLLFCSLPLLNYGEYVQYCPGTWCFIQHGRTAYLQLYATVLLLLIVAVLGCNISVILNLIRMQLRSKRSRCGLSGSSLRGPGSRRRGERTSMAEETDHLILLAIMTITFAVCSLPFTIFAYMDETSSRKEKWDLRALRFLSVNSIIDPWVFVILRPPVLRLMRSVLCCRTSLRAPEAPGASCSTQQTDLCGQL
Source text: as §1, §2, §3, §4

Assay [3] concerns the target T1, EP4 receptor. In words: STEP plate cell functional assay, cAMP level (ELISA), EP4. Type of assay: cell-based. Particulars: 30 minutes, 500 μM IBMX.
Source text: as §1
Procedure of cAMP Assay for EP2/EP4 Agonist
as §3
6. Aspirate the supernatant.
In general terms: cAMP levels reflect the balance of adenylyl cyclase and phosphodiesterase activity.

Assay [4] addresses Human Prostanoid EP4 Receptor (Homo sapiens (Human), UniProt P35408). In words: Radioligand binding assay, agonist site of the human prostanoid EP4 receptor in transfected HEK-293 cells ([3H]PGE2). The protocol: Radioligand Binding Assay for the Evaluation of the Affinity of Compounds for the Agonist Site of the Human Prostanoid EP4 Receptor in Transfected HEK-293 Cells
Following incubation, the samples are filtered rapidly under vacuum through glass fiber filters (GF/B, Packard) presoaked with 0.3% PEI and rinsed several times with ice-cold 50 mM Tris-HCl using a 96-sample cell harvester (Unifilter, Packard). The filters are dried then counted for radioactivity in a scintillation counter (Topcount, Packard) using a scintillation cocktail (Microscint 0, Packard).

T1 sequence (P43114 whole entry): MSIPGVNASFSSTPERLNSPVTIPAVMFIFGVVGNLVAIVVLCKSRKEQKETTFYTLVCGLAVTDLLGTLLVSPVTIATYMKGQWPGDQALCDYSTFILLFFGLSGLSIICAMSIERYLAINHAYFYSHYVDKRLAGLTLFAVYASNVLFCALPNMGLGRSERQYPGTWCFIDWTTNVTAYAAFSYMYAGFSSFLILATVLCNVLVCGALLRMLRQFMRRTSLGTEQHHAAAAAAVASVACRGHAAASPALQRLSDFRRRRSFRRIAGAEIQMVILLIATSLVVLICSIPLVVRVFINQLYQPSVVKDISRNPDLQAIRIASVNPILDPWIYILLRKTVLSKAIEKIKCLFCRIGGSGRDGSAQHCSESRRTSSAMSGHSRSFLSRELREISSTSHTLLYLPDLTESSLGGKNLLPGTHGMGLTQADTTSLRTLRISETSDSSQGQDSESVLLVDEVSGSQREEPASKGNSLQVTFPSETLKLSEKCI
Chain of Human Prostanoid EP4 Receptor (P35408 whole entry): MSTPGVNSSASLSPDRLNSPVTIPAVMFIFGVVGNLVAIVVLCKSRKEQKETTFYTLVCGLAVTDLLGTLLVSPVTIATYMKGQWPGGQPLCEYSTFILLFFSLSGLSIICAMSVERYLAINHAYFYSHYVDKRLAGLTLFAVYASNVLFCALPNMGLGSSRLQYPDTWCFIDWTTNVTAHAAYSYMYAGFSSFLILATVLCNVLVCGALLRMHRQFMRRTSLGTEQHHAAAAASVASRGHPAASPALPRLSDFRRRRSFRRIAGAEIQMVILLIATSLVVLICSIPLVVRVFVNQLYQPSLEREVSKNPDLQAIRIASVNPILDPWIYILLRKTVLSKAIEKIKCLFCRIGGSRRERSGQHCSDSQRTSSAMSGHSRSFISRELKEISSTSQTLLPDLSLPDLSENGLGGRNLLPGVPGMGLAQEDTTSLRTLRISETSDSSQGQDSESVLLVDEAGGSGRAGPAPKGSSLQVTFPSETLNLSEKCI

Regarding `CC(CCCc1ccccc1)[C@H](O)/C=C/[C@H]1CCC(=O)N1CCCCCCC(=O)O` (mixture of isomers) [Example 2C, 7-((2R)-2-((3S,E)-3-hydroxy-4-methyl-7-phenylhept-1-en-1-yl)-5-oxopyrrolidin-1-yl)heptanoic acid], the EC50 (in general, the concentration needed to bring the measured effect to its halfway point) in assay [1] is 0.001 ± 0.001 nM; in assay [2] it was above 1000 nM; in assay [3], 0.007 nM.

As for `CC(CCCc1ccccc1)[C@H](O)/C=C/[C@H]1CCC(=O)N1CC#Cc1ccc(C(=O)O)s1` (mixture of isomers) [Example 3C, 5-(3-((2R)-2-((3S,E)-3-hydroxy-4-methyl-7-phenylhept-1-en-1-yl)-5-oxopyrrolidin-1-yl)prop-1-yn-1-yl)thiophene-2-carboxylic acid], the values for the concentration giving a half-maximal response (EC50) in assay [1] and in assay [2] were 0.019 nM and above 10000 nM, respectively.

Turning to `CC(CCCc1ccccc1)[C@@H](O)/C=C/[C@H]1CCC(=O)N1CC#Cc1ccc(C(=O)O)s1` (mixture of isomers) [Example 3D, 5-(3-((2R)-2-((3R,E)-3-hydroxy-4-methyl-7-phenylhept-1-en-1-yl)-5-oxopyrrolidin-1-yl)prop-1-yn-1-yl)thiophene-2-carboxylic acid], the concentration giving a half-maximal response (EC50) in assay [1] was 31.5 nM; in assay [2], above 10000 nM.

For `CC(CCCc1ccccc1)[C@H](O)/C=C/[C@H]1CCC(=O)N1CCCc1ccc(C(=O)O)s1` (mixture of isomers) [Example 4C, 5-(3-((2R)-2-((3S,E)-3-hydroxy-4-methyl-7-phenylhept-1-en-1-yl)-5-oxopyrrolidin-1-yl)propyl)thiophene-2-carboxylic acid], the values for the EC50 in assay [1] and in assay [2] were 0.003 nM and 2280 nM, respectively.

In assay [2], `CC(CCCc1ccccc1)[C@@H](O)/C=C/[C@H]1CCC(=O)N1CCCc1ccc(C(=O)O)s1` (mixture of isomers) [Example 4D, 5-(3-((2R)-2-((3R,E)-3-hydroxy-4-methyl-7-phenylhept-1-en-1-yl)-5-oxopyrrolidin-1-yl)propyl)thiophene-2-carboxylic acid] displayed an EC50 above 10000 nM.

Regarding `O=C(O)CCCCCCN1C(=O)CC[C@@H]1/C=C/[C@@H](O)CCCCc1ccccc1` [Example 1C, 7-((R)-2-((S,E)-3-hydroxy-7-phenylhept-1-en-1-yl)-5-oxopyrrolidin-1-yl)heptanoic acid], the 50% effective concentration (EC50) in assay [1] is 0.014 ± 0.02 nM; in assay [2], above 1000 nM; in assay [3], 1.37 nM. Moreover, the IC50 (in general, the point on the concentration scale where inhibition reaches its midpoint) in assay [4] (read-out: hEP4 receptor binding IC50) stood at 10 nM. Further, the Ki – broadly, a measure of affinity in units of concentration, obtained from inhibition or displacement – in assay [4] (read-out: hEP4 receptor binding Ki) turned out to be 3.8 nM.
